Values of other authors, collected in patent publication US20130052262A1, “DABIGATRAN ETEXILATE-CONTAINING ORAL PHARMACEUTICAL COMPOSITION” (priority 2010, published 2013).

Settings: in the acidic environment

pH-dependent solubility: greatly increased
SMILES: CCCCCCOC(=O)NC(=N)c1ccc(NCc2nc3cc(C(=O)N(CCC(=O)OCC)c4ccccn4)ccc3n2C)cc1 [dabigatran etexilate, 3-[(2-{[4-(hexyloxycarbonylamino-imino-methyl)-phenylamino]-methyl}-1-methyl-1H-benzimidazole-5-carbonyl)-pyridine-2-yl-amino]-propionic acid ethyl ester]
